In patent US6204067A, “Methods of identifying modulators of the estrogen receptor” (Board of Trustees Operating Michigan State University, priority 1999, dated 2001):

Key:
[1] = tested on: recycling endosomes of MCF-7/ADR cells; experiment: In vitro acidification of recycling endosomes (FITC-transferrin); type: biochemical
Description: Acidification from the recycling endosomal fraction was monitored by first incubating cells with FITC-transferrin for 30 minutes before lysis and isolation of microsomes. Acidification was monitored by excitation of the FITC fluorophore at 450 and 488 nm and measuring λem =520 nm as described previously.
To specifically examine the acidification of the endosomes in vitro, in vitro acidification was assayed using FITC-transferrin which is constrained by the transferrin receptor to the endocytic pathway. MCF-7/ADR cells were incubated with FITC-transferrin before lysis and isolation of microsomes. Since this assay is not based on the redistribution of probes, it further serves as verification that AO quenching resulted from vesicular acidification. Upon addition of ATP, there was a decrease in the ratio of the FITC-emission (FIG. 1C). This signal was the consequence of acidification, since it was reversed upon the addition of nigericin.

yeast vacuoles = experiment: Acidification of yeast vacuoles (acridine orange); type: biochemical, S. cerevisiae
Description: Vacuoles from S. cerevisiae were prepared from the protease deficient strain BJ2407 (Yeast Genetic Stock Center, University of California, Berkeley) by sequential floatation through 12% and 8% Ficoll 400 cushion as described previously [Roberts et al., Methods Enzymol, 194:644-661 (1991)] with the single modification that 1× protease inhibitor mix and 1 mM DTT was included in each step. […] Acidification was measured using AO as described above. For acidification in chloride-free solution, gluconate or glutamate was used in vesicle buffer instead of chloride.
ATP (1.5 mM) was added at 50 sec to initiate acidification and at 400 sec nigericin (1 μM) was added to dissipate pH gradients.

[2] = tested on: E. coli inverted membrane vesicles; experiment: Acidification of E. coli inverted membrane vesicles (acridine orange); type: biochemical; details: 0.63 μM, 2 μM, 10 μM; similar dose dependence as mammalian and yeast vesicles
Description: InV were prepared from the DH5α strain as described [Simon and Blobel, Cell 69:677-684 (1992)]. Acidification was measured using AO as described above.
Unlike mammalian or yeast vesicles, InV utilize the F0 F1 -ATPase for acidification and are composed of different types of lipids, including an abundance of cardiolipin and a lack of sterols.

[3] = Liposome chloride concentration (lucigenin)

With `CC/C(=C(\c1ccccc1)c1ccc(OCCN(C)C)cc1)c1ccccc1` [tamoxifen] the “effect on ATP-dependent acidification of recycling endosomes” value ([1]; 2.5 μM added after ATP) was “partially reversed the acidification”, the “effect on ATP-dependent acidification of recycling endosomes” value ([1]; concentration raised an additional 2.5 μM) was “farher reduced” and the “effect of addition to pre-acidified vacuoles” value (yeast vacuoles; added at 250 sec, tamoxifen 2 μM, ammonium 1 mM) was “rapid alkaline step followed by slower alkalinization”. The “concentration giving complete inhibition of acidification” value (yeast vacuoles; pre-equilibrated, 1.5 mM ATP, KCl buffer) was 8 µM, the “inhibition of vacuole acidification” value (yeast vacuoles; pre-equilibrated, tamoxifen 2 μM or 8 μM, ammonium chloride 1 mM) was “dose dependent inhibition of acidification” and the “effect on ATP-dependent acidification of InV” value [2] was “inhibited acidification”. The “rate of chloride influx in the presence of valinomycin” value ([3]; 4 μM tamoxifen with 1 μM valinomycin, 50 mM KCl) was “increased the rate of chloride influx” and the “rate of chloride influx into liposomes” value ([3]; after addition of 50 mM KCl, tamoxifen 2, 4, 8 μM, valinomycin 1 μM) was “dose dependent increase in the rate of chloride influx”.
